Assay results taken from paper PMC12040169 (PLOS Biology, 2025).

Test: in vitro
Settings: human, hela cells, % viability

First: COCCN1CCn2c(nc3cc(NC(=O)C4CCCCC4)ccc32)C1 [CBK307411]
Second: O=C(Nc1ccc2c(c1)nc1n2CCOC1)C1CCCCC1 [CBK307570]
The viability at 28.5 h, 10 µM of the first is higher: 112% for the first, 90% for the second.

First: COC(=O)Nc1sc2c(c1C(=O)N1CCOCC1)CCC(C)C2 (stereo not shown) [CBK307413]
Second: CC1CCc2c(sc(NC(=O)CCC(=O)O)c2C(=O)N2CCOCC2)C1 (stereo not shown) [CBK307550]
The viability at 28.5 h, 10 µM of the first is higher: 95% for the first, 94.1% for the second.

Compared with `O=C(NC1CCCc2nc(N3CCC(CO)CC3)ncc21)C1CCCC1` (stereo not shown) [CBK307415], `CC(C)OCC(=O)NC1CCCc2nc(N3CCC(CO)CC3)ncc21` (stereo not shown) [CBK307520] is higher in viability at 28.5 h, 10 µM: 87.4% for the first, 94.5% for the second.

Going from `CCc1nccn1CCN1CCCC(COc2ccccc2F)C1` (stereo not shown) [CBK307416] to `Cn1ccnc1CN1CCCC(CCC(=O)Nc2ccccc2F)C1` (stereo not shown) [CBK307462], the viability at 28.5 h, 10 µM falls from 93.4% to 92.1%.

Going from `COCC(C)NC(=O)c1cnn2c(C(F)(F)F)cc(-c3cccs3)nc12` (stereo not shown) [CBK307417] to `CN(C)C(=O)c1cn2cc(-c3cccs3)n(CC3CC3)c(=O)c2n1` [CBK307440], the viability at 28.5 h, 10 µM falls from 104% to 91.4%.

Going from `CCc1cc(C(=O)Nc2nn(C)c3cccc(N4CCOCC4)c23)cs1` [CBK307419] to `Cn1nnc2cc(NC(=O)NCc3csc(N4CCOCC4)n3)ccc21` [CBK307492], the viability at 28.5 h, 10 µM falls from 110% to 94.2%.

First: CO[C@H]1CNC[C@@H]1NC(=O)c1cccc2c1NCCC2 [CBK307421]
Second: CC(=O)Nc1cccc(C(=O)NC2CC(=O)N(C3CCCCCC3)C2)c1 (stereo not shown) [CBK307455]
The viability at 28.5 h, 10 µM of the first is higher: 115% for the first, 102% for the second.

Going from `O=c1[nH]c(NCc2ccccc2)nc2c1CCCC2` [CBK307423] to `O=C(NCc1csc2c1CCCC2)N1CC(c2ccccn2)C1` [CBK307499], the viability at 28.5 h, 10 µM rises from 89.9% to 100%.

Compared with `CCC(=O)Nc1ccc(C(=O)N2CCN(c3ccccc3)CC2)cc1` [CBK307425], `CCC(=O)Oc1ccc(C(=O)N2CCN(c3ccccc3F)CC2)cc1` [CBK307538] is lower in viability at 28.5 h, 10 µM: 105% for the first, 103% for the second.

First: Cn1cc(C(NC(=O)c2cn3ccsc3n2)C2CC(O)C2)cn1 (stereo not shown) [CBK307428]
Second: O=C(NC(c1ccc2c(c1)CCO2)C1CC(O)C1)c1cccc(=O)[nH]1 (stereo not shown) [CBK307463]
The viability at 28.5 h, 10 µM of the first is higher: 110% for the first, 86.2% for the second.

Going from `CCCCc1nccc(-c2ccc(OCC)c(C(=O)O)c2)n1` [CBK307429] to `CCOc1ccc(Cl)cc1CN(C)C(=O)NCC(C)CN(C)C` (stereo not shown) [CBK307500], the viability at 28.5 h, 10 µM rises from 82.8% to 121%.

Going from `CC(=O)NC1CCN(c2nc(C(C)(C)C)nc3c2cnn3C)CC1` [CBK307431] to `CC(=O)N1CCOC(CNc2nc(C(C)(C)C)nc3c2cnn3C)C1` (stereo not shown) [CBK307469], the viability at 28.5 h, 10 µM falls from 101% to 89.4%.

First: CN1CCC(N(C)C(=O)c2ccc(-c3ccccc3CO)cc2)C1 (stereo not shown) [CBK307432]
Second: CCc1ccc(NC(=O)CN2CCN(c3ccccc3F)CC2)cc1 [CBK307549]
The viability at 28.5 h, 10 µM of the first is lower: 103% for the first, 112% for the second.

Compared with `Cn1c(N2CC[C@H](O)C2)nc2cc(C(=O)NC[C@@H]3CCCO3)ccc21` [CBK307433], `Cn1c(N2CC[C@H](O)C2)nc2cc(C(=O)NCc3ccsc3)ccc21` [CBK307471] is lower in viability at 28.5 h, 10 µM: 109% for the first, 87.5% for the second.

First: CC1(Cn2ccnc2-c2ccccc2C(=O)O)CCCO1 (stereo not shown) [CBK307439]
Second: Cn1ccnc1CNC(=O)N1CCCC(C(=O)c2cccc(Cl)c2)C1 (stereo not shown) [CBK307479]
The viability at 28.5 h, 10 µM of the first is lower: 88.8% for the first, 105% for the second.

First: Cc1cc(-n2cccn2)ccc1CN1CCCCC1CN1CCOCC1 (stereo not shown) [CBK307442]
Second: O=c1cc(N2CCCCC2)cnn1Cc1nccn1C1CC1 [CBK307484]
The viability at 28.5 h, 10 µM of the first is lower: 83.2% for the first, 89.6% for the second.

Going from `CC(C)c1nc(CCN(C)C(=O)NCc2cc(-c3ccco3)on2)no1` [CBK307443] to `CCCn1cnnc1C(C)NC(=O)N(C)Cc1nc2cccc(C)c2[nH]1` (stereo not shown) [CBK307551], the viability at 28.5 h, 10 µM rises from 97.8% to 112%.

Going from `CNc1nc(Cn2ncc(N3CCCN(C)CC3)cc2=O)cs1` [CBK307446] to `Cn1cnnc1SCCNC(=O)N1CCCN(Cc2cccs2)CC1` [CBK307485], the viability at 28.5 h, 10 µM rises from 92.8% to 94%.

Compared with `COCCc1nc(C2CCN(C)CC2)n(Cc2ccccc2C)n1` [CBK307449], `Cc1ccccc1N1CCC(CNC(=O)CCn2nc(C)c(C)c2C)C1` (stereo not shown) [CBK307465] is lower in viability at 28.5 h, 10 µM: 115% for the first, 87.7% for the second.

Compared with `CCCNC(=O)c1ccc(C)c(NC(=O)N[C@@H]2C[C@@H](CO)N(C)C2)c1` [CBK307451], `CCN1CCN(C(=O)CCNC(=O)c2cccc(OC)c2)CC1` [CBK307580] is higher in viability at 28.5 h, 10 µM: 92.9% for the first, 96.6% for the second.

Compared with `Cc1nc(O)cc(C2CCN(C(=O)c3scc4c3CCCC4)CC2)n1` [CBK307452], `O=C(NCc1csc2c1CCCC2)N1CCC(CO)CC1` [CBK307476] is higher in viability at 28.5 h, 10 µM: 85.9% for the first, 98.9% for the second.

Compared with `OC(c1cccs1)C1CCN(Cc2ccc(Cn3cccn3)cc2)CC1` (stereo not shown) [CBK307454], `Cc1ccc(CN2CCC(CN(C)C(=O)c3cc4sccc4[nH]3)CC2)o1` [CBK307522] is higher in viability at 28.5 h, 10 µM: 83.6% for the first, 102% for the second.

Going from `Cc1n[nH]c2c1CN(Cc1nc(C)c(C)n1C)CC2` [CBK307456] to `CSc1nnc(CC2CCN(C(=O)c3cc(C)c(C)cc3C)CC2)n1C` [CBK307467], the viability at 28.5 h, 10 µM rises from 84.7% to 99%.

First: COCCn1c(CO)nnc1[C@H]1C[C@@H](NC(=O)c2ncc(F)cc2F)C1 [CBK307458]
Second: Cc1nc(NCCc2cnc(=O)n(C)c2O)cc(C2CCOC2)n1 (stereo not shown) [CBK307559]
The viability at 28.5 h, 10 µM of the first is higher: 106% for the first, 93.2% for the second.

Going from `CCCn1ccnc1CNc1nc(C)nc2c1c(C)nn2C` [CBK307459] to `Cc1nc(C)n(CCCNc2cc(C(C)C)nc3ccnn23)n1` [CBK307497], the viability at 28.5 h, 10 µM falls from 85% to 79.7%.

Going from `COCCC1CN(c2nc(N(C)C)nc3c2CCN(C(C)=O)C3)CCO1` (stereo not shown) [CBK307464] to `COCCNc1nc2c(c(N3CCSCC3)n1)CCNCC2` [CBK307510], the viability at 28.5 h, 10 µM rises from 82.2% to 111%.

Going from `CC(=O)c1cc(CN(C)C(C)c2ccncn2)cs1` (stereo not shown) [CBK307470] to `COc1ccc(CNC(=O)c2cc(S(=O)(=O)N(C)C)cs2)cc1` [CBK307579], the viability at 28.5 h, 10 µM rises from 85.5% to 87.1%.

Going from `Cc1cnc2c(Cl)c(C(=O)N3CCC4(CCCNC4)C3)nn2c1` (stereo not shown) [CBK307472] to `Cc1ccc(OC2(C(=O)N3CCCC3c3nccs3)CCNCC2)cc1` (stereo not shown) [CBK307539], the viability at 28.5 h, 10 µM falls from 116% to 94.6%.

Compared with `O=C(c1ccc2c(c1)CCCO2)N(Cc1ccccn1)CC1CCCO1` (stereo not shown) [CBK307488], `COc1ccccc1CC(=O)N(Cc1cccnc1)C[C@@H]1CCC(=O)N1` [CBK307504] is higher in viability at 28.5 h, 10 µM: 84.9% for the first, 95.7% for the second.

First: CN(C)Cc1nc(C(=O)N2CCn3nc(C(O)C4CC4)cc3C2)cs1 (stereo not shown) [CBK307489]
Second: CCn1c(CC2CCN(C(=O)CCn3cc(C)cn3)CC2)nn(C)c1=O [CBK307584]
The viability at 28.5 h, 10 µM of the first is higher: 101% for the first, 89.7% for the second.

Going from `CCN(C)C(=O)c1cn2cc(-c3cc(C)oc3C)n(C)c(=O)c2n1` [CBK307494] to `COCCn1c(=O)c2c(nc3oc(C(C)(C)C)cn32)n(C)c1=O` [CBK307566], the viability at 28.5 h, 10 µM rises from 94.9% to 96.7%.

Going from `COCc1nc(NCCn2c(C)cc(C)nc2=O)cc(C2CCOC2)n1` (stereo not shown) [CBK307495] to `Cc1nc2cc(OCc3nc(C(=O)NCC4CCOC4)co3)ccc2s1` (stereo not shown) [CBK307508], the viability at 28.5 h, 10 µM falls from 92.6% to 86.1%.

First: CN(C)c1nc2c(c(-c3cncc(N)c3)n1)CCCC2 [CBK307503]
Second: Cc1n[nH]cc1CN(C)c1cc([C@H]2C[C@@H](N)C2)nc(C2CC2)n1 [CBK307544]
The viability at 28.5 h, 10 µM of the first is lower: 105% for the first, 110% for the second.

First: COc1c(C)cc(-c2nc(C)nc(C)c2C)cc1C [CBK307506]
Second: CCSc1nc(=O)c2c(n1C)NC(=O)CC2c1ccc(OC)cc1 (stereo not shown) [CBK307542]
The viability at 28.5 h, 10 µM of the first is higher: 96.7% for the first, 89.9% for the second.

Going from `CNC(=O)CCc1ccccc1NC(=O)NCc1cnc(SC)n1C` [CBK307507] to `CCSc1nc(=O)c2c(n1C)NC(=O)CC2c1ccccc1` (stereo not shown) [CBK307541], the viability at 28.5 h, 10 µM rises from 101% to 107%.

First: Cn1ncc2c(NCCN3CCOC3=O)nc(C(C)(C)C)nc21 [CBK307511]
Second: Cc1c(C)n(Cc2ccco2)c2ncnc(NCCCC(=O)O)c12 [CBK307562]
The viability at 28.5 h, 10 µM of the first is lower: 75.3% for the first, 90.7% for the second.

Going from `CC(=O)c1ccc(-c2cc(F)cc3c2OC(CN)C3)s1` (stereo not shown) [CBK307513] to `COc1ccc(CN2CC=CC2C(=O)O)cc1Cn1cncn1` (stereo not shown) [CBK307524], the viability at 28.5 h, 10 µM rises from 54.2% to 76.2%.

Going from `CC(NC(=O)C1(Cn2ccnc2)CC1)c1nc(-c2ccccn2)no1` (stereo not shown) [CBK307514] to `Cc1ccccc1-c1noc(CNC(Cn2ccnc2)C(C)C)n1` (stereo not shown) [CBK307560], the viability at 28.5 h, 10 µM falls from 107% to 89.1%.

Going from `CCN(CCO)C(=O)c1cccc(-c2cnn(C(F)F)c2C)c1` [CBK307519] to `Cc1cc(C)n(CC(C)C(=O)Nc2cccnc2)n1` (stereo not shown) [CBK307573], the viability at 28.5 h, 10 µM rises from 95.5% to 97.5%.

Going from `CSCCN(C)c1nc2c(c(=O)[nH]1)Cc1ccccc1OC2` [CBK307523] to `CSCCC(Nc1ncnc2c1c(C)c(C)n2Cc1ccco1)C(=O)O` (stereo not shown) [CBK307568], the viability at 28.5 h, 10 µM falls from 100% to 92.3%.

First: CCCCSc1nc(N)cc(N2CCC(N3CCCC3=O)CC2)n1 [CBK307525]
Second: O=C1CCCN1CCC1CCN(c2nccc(CCC(F)(F)F)n2)CC1 [CBK307534]
The viability at 28.5 h, 10 µM of the first is higher: 108% for the first, 90.1% for the second.

Going from `CN(C)S(=O)(=O)NC1CC(C)(C)Cc2c1cnn2-c1ccccc1` (stereo not shown) [CBK307533] to `CCC1C=CCN1S(=O)(=O)c1cccc(C(=O)NCc2cnn(C)c2)c1` (stereo not shown) [CBK307536], the viability at 28.5 h, 10 µM rises from 94.5% to 96.4%.

Going from `Cc1c(C)n(Cc2ccco2)c2ncnc(NCC(=O)O)c12` [CBK307563] to `Cc1nnc(CCNC2CCN(c3ncnc4c(C)csc34)CC2)s1` [CBK307574], the viability at 28.5 h, 10 µM falls from 101% to 84.9%.

First: CCOC(=O)c1cn([C@H]2CC[C@H](O)CC2)cc(Oc2ccccc2)c1=O [CBK307565]
Second: CCOC(=O)c1c(NC(=O)NCc2cccnc2)sc2c1CCC2 [CBK307585]
The viability at 28.5 h, 10 µM of the first is higher: 108% for the first, 87.3% for the second.

Compared with `Cc1cc(=O)n2c3c(cc(S(=O)(=O)NC4CC4)cc13)CCC2` [CBK307572], `CCCN1CC(NS(=O)(=O)c2cc(OC)c(Cl)cc2OC)CC1=O` (stereo not shown) [CBK307581] is higher in viability at 28.5 h, 10 µM: 87% for the first, 96.7% for the second.

`COc1ccc(CNC(=O)c2cc(S(=O)(=O)N3CCOCC3)cs2)cc1` [CBK307577] gave a viability at 28.5 h, 10 µM of 95.7%.
